One test deals with Hela cells. The experiment in a line: Cell Viability Assay, Hela cells. It counts as cell-based. Particulars: Homo sapiens, 72 h, Cell Titer Glo, read-out: Cell Viability - Hela cells (activity range), IC50. As to the method: (§1) 3.4 Cell Viability Assays
(§2) Hela- or MDAMB468-Cells were maintained in RPMI 1640 or McCoy's 5A cell culture medium+glutamine (PAN Biotech GmbH, Aidenbach, Germany; order no. PO4-22100; PO4-05500) supplemented with 10% fetal calf serum “Gold” (PAA Laboratories GmbH, Pasching, Austria; order no. A15-151) and grown at 37° C., 5% CO2. For the cell viability assay, cells were seeded with a density of 400 (Hela cells, DSMZ Braunschweig order no. ACC57) or 800 (MDAMB468 cells, ATCC order no. HTB-132) per well in 25 μL in 384-well plates (Greiner Bio-One, Frickenhausen, Germany; order no. 781080). After overnight incubation at 37° C./5% CO2, 25 nL or 75 nL compound were added to each sample well by using BIOMEK FXP Laboratory Automation Workstation (Beckman Coulter, USA). Wells with cells and 0.1% or 0,3% DMSO in culture medium were used as positive controls, wells with cells and 10 μM staurosporine in culture medium were used as negative controls. The cells were incubated with the compounds for 72 h at 37° C./5% CO2. For measurement of cell viability 25 μL Cell Titer Glo reagent (Promega, Madison, USA; order no. G7573), 1:2 diluted with cell culture medium, was added to each well. The 384we11-plates were placed for 2 min on a orbital microplate shaker and incubated for further 10 min at room temperature to stabilize the luminescence signal.
(§3) Luminescence was measured by Envision Plate Reader (Perkin Elmer, USA). IC50 values were calculated with the software Excel Fit (IDBS, Guildford, UK) from 3-fold dilution series comprising at least 8 concentrations in duplicates.
Background: Cellular ATP, detected with luciferase, serves as a proxy for viable cell number.

The target of the next test is T1, CDK9/Cyclin T1 (Homo sapiens, UniProt P50750).
T1 construct: His; purchased Invitrogen
Description: LanthaScreen Eu Kinase Binding Assay, CDK9/Cyclin T1. Particulars: tracer 236, read-out: CDK9/Cyclin T1 (activity range), Kd. The essentials:
(§4)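 TR-FRET displacement of an Alexa Fluor 647 active-site tracer, detected with a Eu anti-GST antibody, over an 8-point 1:3 compound series. Tracer was set at its Kd (30 nM for CDK2/Cyclin A, CDK7 and CDK9/Cyclin T1; 35 nM for CDK9/Cyclin K). Read after 1 h at room temperature; Kd was fitted from sigmoidal curves.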

The next test addresses T2, CDK7/CyclinH/MAT1 (Homo sapiens, UniProt P50613).
T2 construct: His; purchased Carna Biosciences
Description: LanthaScreen Eu Kinase Binding Assay, CDK7. As to conditions: tracer 236, read-out: CDK7 (activity range), Kd. In outline: as §4
(In general: Time-resolved FRET reads energy transfer from a long-lived donor to a nearby acceptor.)

Another test has as its target T3, CDK2/CyclinA (Homo sapiens, UniProt P24941).
T3 construct: GST; purchased Proqinase
Description: LanthaScreen Eu Kinase Binding Assay, CDK2. As to conditions: tracer 236, read-out: CDK2 (activity range), Kd. How it is done: This protocol describes how the LanthaScreen Eu Kinase Binding Assay was performed to determine dissociation constants (Kd) of compounds of general formula (I) and CDK/Cyclin complexes. The principle behind this assay is based upon the binding and displacement of an Alexa Fluor 647-labeled tracer, which binds to the active site of kinases. Binding of the tracer to the kinase is detected using a Eu-labeled antibody. Simultaneous binding of both the tracer and antibody to the kinase gives rise to a FRET-signal. Binding of an inhibitor to the kinase competes for binding with the tracer, resulting in a loss of FRET.
The compounds of general formula (I) summarized in Table 1 were diluted from a 10 mM DMSO stock solution 1:10 in a total volume of 15 μL DMSO. This compound predilution was then serial diluted 1:3 over 8 steps in DMSO and briefly spun down. Each compound solution was now diluted 1:33.33 in kinase buffer (HEPES: 20 mM, pH: 8.0; MgCl2: 10 mM; DTT: 1 mM; Brij-35: 0,01%), mixed thoroughly and spun down. For every sample, 5 μL of the diluted compound were mixed with 5 μL tracer working solution (e.g. 60 nM tracer 236 in kinase buffer for CDK2/Cyclin A) and 5 μL CDK/Cyclin/Anti-GST-AB-working solution (e.g. 15 nM CDK2/Cyclin A, 1:250 dilution of Anti-GST-AB in kinase buffer) in a well of a small volume 384 well plate (Corning Incorporated, Corning, N.Y., USA; order no. 3673). The tracer concentration was adjusted to its dissociation constant (Kd) for the CDK/Cyclin, which was 30 nM for CDK2/Cyclin A, CDK7/Cyclin H and CDK9/Cyclin T1, 20 nM for CDK8/Cyclin C, and 35 nM for CDK9/Cyclin K. For negative controls, in each well 5 μL of DMSO working solution (3% DMSO diluted in kinase buffer) was mixed with 5 μL Anti-GST-AB working solution (e.g. 1:250 dilution of Anti-GST-AB in kinase buffer for CDK2/Cyclin A) and 5 μL Tracer working solution (e.g. 60 nM Tracer 236 in kinase buffer for CDK2/Cyclin A). For positive controls, in each well 5 μL of DMSO working solution (3% DMSO diluted in kinase buffer) was mixed with 5 μL CDK/Cyclin/Anti-GST-AB-working solution: (e.g. 15 nM CDK2/Cyclin A, 1:250 dilution of Anti-GST-AB in kinase buffer) and 5 μL Tracer working solution (e.g. 60 nM Tracer 236 in kinase buffer for CDK2/Cyclin A). Positive and negative controls were calculated from at least 8 different sample wells. The 384 well plates were mixed in a Teleshaker plate mixer (Beckman Coulter, Brea, Calif., USA) at 2000 rpm for 40 sec, and incubated for 1 h at room temperature before reading. The FRET signal was measured at 340 nm excitation, 665 nm and 615 nm emission (for the kinase tracer and LanthaScreen Eu-AB, respectively) with an Envision spectrophotometer (Perkin Elmer, Waltham, Mass., USA) with […]. Kd values were determined from the sigmoidal dose response curves with the software Quattro Workflow (Quattro GmbH, Munich, Germany).

For a further test, the system named is MDAMB468 cells. The experiment in a line: Cell Viability Assay, MDAMB468 cells. It counts as cell-based. Particulars: Homo sapiens, MDA-MB-468; 72 h, Cell Titer Glo; read-out: Cell Viability - MDAMB468 cells (activity range), IC50. How it is done: as §1, §2, §3
Another test deals with T4, CDK9/Cyclin K (Homo sapiens, UniProt P50750).
T4 construct: His; purchased Invitrogen
Description: LanthaScreen Eu Kinase Binding Assay, CDK9/Cyclin K. As to conditions: tracer 236, read-out: CDK9/Cyclin K (activity range), Kd. The essentials: as §4

T2 sequence (P50613 whole entry): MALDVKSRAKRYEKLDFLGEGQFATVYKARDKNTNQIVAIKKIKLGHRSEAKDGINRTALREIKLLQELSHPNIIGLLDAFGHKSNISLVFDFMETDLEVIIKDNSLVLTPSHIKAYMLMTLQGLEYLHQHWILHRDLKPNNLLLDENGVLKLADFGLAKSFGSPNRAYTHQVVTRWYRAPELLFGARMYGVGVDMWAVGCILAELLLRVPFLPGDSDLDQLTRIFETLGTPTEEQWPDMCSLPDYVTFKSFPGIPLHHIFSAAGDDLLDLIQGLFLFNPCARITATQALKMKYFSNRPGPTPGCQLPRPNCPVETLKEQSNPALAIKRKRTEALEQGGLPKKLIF
T2 sequence (P51946 whole entry partner): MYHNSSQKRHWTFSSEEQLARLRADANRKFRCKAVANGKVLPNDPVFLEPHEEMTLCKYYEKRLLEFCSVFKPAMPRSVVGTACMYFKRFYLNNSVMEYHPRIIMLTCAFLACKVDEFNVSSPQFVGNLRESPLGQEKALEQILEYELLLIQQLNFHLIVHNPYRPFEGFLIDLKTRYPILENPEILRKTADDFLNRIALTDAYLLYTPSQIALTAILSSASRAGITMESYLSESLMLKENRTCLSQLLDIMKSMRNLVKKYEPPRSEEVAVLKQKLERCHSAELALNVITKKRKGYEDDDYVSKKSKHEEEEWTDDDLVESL
T2 sequence (P51948 whole entry partner): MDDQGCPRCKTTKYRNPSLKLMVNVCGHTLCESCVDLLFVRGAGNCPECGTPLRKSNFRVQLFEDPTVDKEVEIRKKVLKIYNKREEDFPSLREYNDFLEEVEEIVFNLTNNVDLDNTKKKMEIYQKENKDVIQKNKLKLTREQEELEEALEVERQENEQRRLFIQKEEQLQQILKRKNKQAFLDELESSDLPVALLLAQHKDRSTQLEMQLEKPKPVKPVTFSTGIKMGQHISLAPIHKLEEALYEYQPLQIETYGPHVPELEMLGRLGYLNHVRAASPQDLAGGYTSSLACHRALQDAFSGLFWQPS
T1 sequence (P50750 whole entry): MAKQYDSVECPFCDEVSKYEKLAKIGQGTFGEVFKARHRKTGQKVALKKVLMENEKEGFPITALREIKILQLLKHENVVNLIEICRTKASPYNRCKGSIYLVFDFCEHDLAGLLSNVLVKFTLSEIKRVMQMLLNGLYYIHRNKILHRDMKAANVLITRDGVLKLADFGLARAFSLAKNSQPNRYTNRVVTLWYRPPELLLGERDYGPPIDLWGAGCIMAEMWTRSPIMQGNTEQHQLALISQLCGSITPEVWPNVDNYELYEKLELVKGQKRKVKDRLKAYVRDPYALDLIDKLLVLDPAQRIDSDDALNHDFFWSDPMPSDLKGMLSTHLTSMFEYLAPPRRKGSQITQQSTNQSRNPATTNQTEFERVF
T1 sequence (O60563 whole entry partner): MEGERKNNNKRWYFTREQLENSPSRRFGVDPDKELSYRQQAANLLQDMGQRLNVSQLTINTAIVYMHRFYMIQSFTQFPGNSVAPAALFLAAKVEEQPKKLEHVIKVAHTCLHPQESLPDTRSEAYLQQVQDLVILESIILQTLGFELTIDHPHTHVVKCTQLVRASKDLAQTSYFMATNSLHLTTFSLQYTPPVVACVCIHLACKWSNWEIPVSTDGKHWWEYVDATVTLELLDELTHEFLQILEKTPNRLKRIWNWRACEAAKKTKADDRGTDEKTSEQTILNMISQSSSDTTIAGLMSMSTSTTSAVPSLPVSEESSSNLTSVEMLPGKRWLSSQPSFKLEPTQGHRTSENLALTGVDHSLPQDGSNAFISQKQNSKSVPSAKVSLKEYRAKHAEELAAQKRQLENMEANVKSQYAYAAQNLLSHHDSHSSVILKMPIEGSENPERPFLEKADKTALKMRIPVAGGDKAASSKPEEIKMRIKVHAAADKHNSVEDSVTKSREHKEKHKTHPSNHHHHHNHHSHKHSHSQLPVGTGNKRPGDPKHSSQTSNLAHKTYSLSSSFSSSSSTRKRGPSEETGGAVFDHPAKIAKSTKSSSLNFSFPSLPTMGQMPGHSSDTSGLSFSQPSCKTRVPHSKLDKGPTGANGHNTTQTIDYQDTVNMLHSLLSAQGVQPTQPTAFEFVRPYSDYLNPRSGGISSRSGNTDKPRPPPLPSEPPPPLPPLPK
T4 sequence (P50750 whole entry): as the sequence (P50750 whole entry) above
T4 sequence (O75909 1-357 isoform O75909-1 partner): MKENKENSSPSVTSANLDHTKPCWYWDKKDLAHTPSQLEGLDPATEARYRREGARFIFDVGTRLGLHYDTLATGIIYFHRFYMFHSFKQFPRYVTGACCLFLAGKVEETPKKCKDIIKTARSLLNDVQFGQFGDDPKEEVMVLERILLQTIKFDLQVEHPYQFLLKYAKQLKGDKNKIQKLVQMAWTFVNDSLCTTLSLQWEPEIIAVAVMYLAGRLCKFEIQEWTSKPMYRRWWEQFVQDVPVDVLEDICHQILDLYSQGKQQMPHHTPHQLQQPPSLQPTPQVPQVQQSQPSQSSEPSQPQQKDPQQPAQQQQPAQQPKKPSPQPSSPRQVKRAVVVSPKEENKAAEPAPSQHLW

As usually defined, the IC50 is the concentration needed to halve the response being measured. Consider `NS(=O)(=O)Cc1cccc(Nc2ncnc(N3Cc4ccncc4C3)n2)c1` [Compound B49, 3-[(4-(1H-Pyrrolo[3,4-c]pyridin-2(3H)-yl)-1,3,5-triazin-2-yl)amino]-benzenemethanesulfonamide], for which the IC50 in the test with Hela cells and with MDAMB468 cells was above 10000 nM throughout. Further, the Kd is below 100 nM at CDK9/Cyclin T1, above 10000 nM at CDK7/CyclinH/MAT1, 100 to 1000 nM on CDK2/CyclinA and below 100 nM on CDK9/Cyclin K.
Regarding `NS(=O)(=O)Cc1cccc(Nc2ncnc(N3CCC[C@@H]3c3ccccc3)n2)c1` [Compound B34, (R)-3-[(4-(2-Phenylpyrrolidin-1-yl)-1,3,5-triazin-2-yl)amino]-benzenemethanesulfonamide], the IC50 with Hela cells is above 10000 nM; with MDAMB468 cells, 1000 to 10000 nM. Moreover, the Kd at CDK9/Cyclin T1 was below 100 nM; on CDK7/CyclinH/MAT1, above 10000 nM; on CDK2/CyclinA, 1000 to 10000 nM; at CDK9/Cyclin K it was below 100 nM.

Source of the values: patent publication US9226929B2, “Pharmaceutically active disubstituted triazine derivatives” (Bayer Intellectual Property GMBH, priority 2011, dated 2016).
